Reference: US12180187B2, “1-phenyl-5-azinylpyrazolyl-3-oxyalkyl acids and their use for controlling unwanted plant growth” (BAYER AKTIENGESELLSCHAFT, priority 2019, dated 2024)

How the values were obtained:
[1] = tested on: ECHCG; assay: Pre-emergence action against ECHCG, 1280 g/ha; assay type: in vivo, Echinochloa crus-galli; settings: visual scoring after about 3 weeks vs untreated controls, 100% = plants have died, 0% = like control plants; for pest or weed control at 1280 g/ha: Echinochloa crus-galli, 504 h
In short: (§1)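 In greenhouse pots of sandy loam, sown weed seeds were covered with soil and treated pre-emergence with the compound in water (600 L/ha, 0.5% additive). Efficacy was assessed visually as percent of untreated control after about 3 weeks.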

[2] = tested on: POAAN; assay: Pre-emergence action against POAAN, 1280 g/ha; assay type: in vivo, Poa annua; settings: visual scoring after about 3 weeks vs untreated controls, 100% = plants have died, 0% = like control plants; for pest or weed control at 1280 g/ha: Poa annua, 504 h
In short: as §1

[3] = tested on: SETVI; assay: Pre-emergence action against SETVI, 1280 g/ha; assay type: in vivo, Setaria viridis; settings: visual scoring after about 3 weeks vs untreated controls, 100% = plants have died, 0% = like control plants; for pest or weed control at 1280 g/ha: Setaria viridis, 504 h
In short: as §1

[4] = tested on: AMARE; assay: Pre-emergence action against AMARE, 1280 g/ha; assay type: in vivo, Amaranthus retroflexus; settings: scored visually after about 3 weeks vs untreated controls (100% = plants have died); for pest or weed control at 1280 g/ha: Amaranthus retroflexus, 504 h
In short: as §1

[5] = tested on: MATIN; assay: Pre-emergence action against MATIN, 1280 g/ha; assay type: in vivo, Tripleurospermum inodorum (Matricaria inodora); settings: scored visually after about 3 weeks vs untreated controls (100% = plants have died); for pest or weed control at 1280 g/ha: Tripleurospermum inodorum, 504 h
In short: as §1

[6] = tested on: STEME; assay: Pre-emergence action against STEME, 1280 g/ha; assay type: in vivo, Stellaria media; settings: scored visually after about 3 weeks vs untreated controls (100% = plants have died); for pest or weed control at 1280 g/ha: Stellaria media, 504 h
In short: as §1

[7] = tested on: ALOMY; assay: Pre-emergence action at 320 g/ha against ALOMY; assay type: in vivo, Alopecurus myosuroides; settings: scored visually after about 3 weeks vs untreated controls (100% = plants have died); for pest or weed control at 320 g/ha: Alopecurus myosuroides, 504 h
In short: (§2)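 Application: aqueous WP or EC with 0.5% additive on soil covering seeds, 600 l/ha. Read-out: visual percent damage after ~3 weeks in greenhouse, untreated pots as reference.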

[8] = tested on: DIGSA; assay: Pre-emergence action at 320 g/ha against DIGSA; assay type: in vivo, Digitaria sanguinalis; settings: visual scoring after about 3 weeks vs untreated controls; for pest or weed control at 320 g/ha: Digitaria sanguinalis, 504 h
In short: as §2

[9] = tested on: SETVI; assay: Pre-emergence action at 320 g/ha against SETVI; assay type: in vivo, Setaria viridis; settings: visual scoring after about 3 weeks vs untreated controls; for pest or weed control at 320 g/ha: Setaria viridis, 504 h
In short: as §2

[10] = tested on: AMARE; assay: Pre-emergence action at 320 g/ha against AMARE; assay type: in vivo, Amaranthus retroflexus; settings: visual scoring after about 3 weeks vs untreated controls; for pest or weed control at 320 g/ha: Amaranthus retroflexus, 504 h
In short: as §2

[11] = tested on: MATIN; assay: Pre-emergence action at 320 g/ha against MATIN; assay type: in vivo, Tripleurospermum inodorum (Matricaria inodora); settings: visual scoring after about 3 weeks vs untreated controls; for pest or weed control at 320 g/ha: Tripleurospermum inodorum, 504 h
In short: as §2

[12] = tested on: POLCO; assay: Pre-emergence action at 320 g/ha against POLCO; assay type: in vivo, Fallopia convolvulus (Polygonum convolvulus); settings: visual scoring after about 3 weeks vs untreated controls; for pest or weed control at 320 g/ha: Fallopia convolvulus, 504 h
In short: as §2

[13] = tested on: VERPE; assay: Pre-emergence action at 320 g/ha against VERPE; assay type: in vivo, Veronica persica; settings: visual scoring after about 3 weeks vs untreated controls; for pest or weed control at 320 g/ha: Veronica persica, 504 h
In short: as §2

[14] = tested on: POAAN; assay: Post-emergence action against POAAN, 1.28 kg/ha; assay type: in vivo, Poa annua; settings: dosage 1280 g/ha, visual rating about 3 weeks after treatment vs untreated controls; for pest or weed control at 1280 g/ha: Poa annua, 504 h
In short: (§3)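 Visual rating against untreated plants about 3 weeks after spraying gives % activity, where 0% means like controls and 100% means plants died. Plants were treated post-emergence at the one-leaf stage with compound formulated as wettable powder or emulsion concentrate, applied at 600 L water/ha plus 0.5% additive.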

[15] = tested on: MATIN; assay: Post-emergence action against MATIN, 1.28 kg/ha; assay type: in vivo, Tripleurospermum inodorum (Matricaria inodora); settings: dosage 1280 g/ha, visual rating about 3 weeks after treatment vs untreated controls (100% = plants died)
In short: as §3

[16] = tested on: DIGSA; assay: Post-emergence action against DIGSA, 1.28 kg/ha; assay type: in vivo, Digitaria sanguinalis; settings: dosage 1280 g/ha, visual rating about 3 weeks after treatment vs untreated controls
In short: as §3

| Compound | Pre-emergence action against ECHCG [1] [%] | Pre-emergence action against POAAN [2] [%] | Pre-emergence action against SETVI [3] [%] | Pre-emergence action against AMARE [4] [%] | Pre-emergence action against MATIN [5] [%] | Pre-emergence action against STEME [6] [%] | Pre-emergence action at 320 g/ha against ALOMY in % [7] [%] | Pre-emergence action against DIGSA in % [8] [%] | Pre-emergence action against SETVI in % [9] [%] | Pre-emergence action against AMARE in % [10] [%] | Pre-emergence action against MATIN in % [11] [%] | Pre-emergence action against POLCO in % [12] [%] | Post-emergence action against POAAN [14] [%] | Post-emergence action against MATIN [15] [%] | pest or weed control at 1280 g/ha [1] [%] | pest or weed control at 1280 g/ha [2] [%] | pest or weed control at 1280 g/ha [3] [%] | pest or weed control at 1280 g/ha [4] [%] | pest or weed control at 1280 g/ha [5] [%] | pest or weed control at 1280 g/ha [6] [%] | further results |
| --- | --- | --- | --- | --- | --- | --- | --- | --- | --- | --- | --- | --- | --- | --- | --- | --- | --- | --- | --- | --- | --- |
| O=C(O)COc1nn(-c2ccccc2F)c(-c2ccnc(F)c2)c1Br [VIII-004] | 100 | 100 | 100 | 100 | 100 | 100 | 100 | 100 | 90 | 100 | 90 | 90 | 100 | 90 |  |  |  |  |  |  | Pre-emergence action against VERPE in % [13]: 100% |
| COC(=O)COc1nn(-c2ccccc2F)c(-c2cncnc2)c1Br [VI-004, Methyl {[4-bromo-1-(2-fluorophenyl)-5-(pyrimidin-5-yl)-1H-pyrazol-3-yl]oxy}acetate] |  |  |  |  |  |  |  |  |  |  |  |  |  | 100 | 100 | 100 | 100 | 100 | 100 | 100 | pest or weed control at 320 g/ha [7]: 100%; pest or weed control at 320 g/ha [8]: 100%; pest or weed control at 320 g/ha [9]: 90%; pest or weed control at 320 g/ha [10]: 100%; pest or weed control at 320 g/ha [11]: 100%; pest or weed control at 320 g/ha [12]: 90%; pest or weed control at 320 g/ha [13]: 100%; pest or weed control at 1280 g/ha [14]: 100% |
| COC(=O)C(C)Oc1nn(-c2ccccc2)c(-c2ccc(F)nc2)c1Br (centres unmarked) [VII-014] | 90 | 100 | 100 | 100 | 90 | 100 | 100 | 100 | 100 | 90 |  | 90 | 100 |  |  |  |  |  |  |  | Pre-emergence action against VERPE in % [13]: 100% |
| COC(=O)[C@@H](C)Oc1nn(-c2ccccc2F)c(-c2ccnc(F)c2)c1Br [VIII-006] | 100 | 100 | 100 | 100 | 100 | 100 | 100 | 100 | 100 | 100 | 90 | 90 | 100 | 100 |  |  |  |  |  |  | Post-emergence action against DIGSA [16]: 90% |
| COC(=O)[C@@H](C)Oc1nn(-c2ccccc2)c(-c2cncnc2)c1Br [VI-013] | 100 | 100 | 100 | 100 | 90 | 100 | 90 | 100 | 100 | 90 | 90 | 90 | 100 | 100 |  |  |  |  |  |  | Post-emergence action against DIGSA [16]: 90% |
| CCOC(=O)C(C)Oc1nn(-c2ccccc2F)c(-c2ccc(F)nc2)c1I (centres unmarked) [VII-057] | 100 | 100 | 100 | 100 | 100 | 100 | 100 | 100 | 90 | 100 | 90 | 90 | 100 | 100 |  |  |  |  |  |  | Post-emergence action against DIGSA [16]: 100% |
| CCOC(=O)COc1nn(-c2ccccc2F)c(-c2ccnc(F)c2)c1Br [VIII-003, Ethyl {[4-bromo-1-(2-fluorophenyl)-5-(2-fluoropyridin-4-yl)-1H-pyrazol-3-yl]oxy}acetate] |  |  |  |  |  |  |  |  |  |  |  |  |  |  | 100 | 100 | 100 | 100 | 100 | 100 | pest or weed control at 320 g/ha [7]: 100%; pest or weed control at 320 g/ha [8]: 100%; pest or weed control at 320 g/ha [9]: 100%; pest or weed control at 320 g/ha [10]: 90%; pest or weed control at 320 g/ha [11]: 90%; pest or weed control at 320 g/ha [12]: 100%; pest or weed control at 320 g/ha [13]: 90%; pest or weed control at 1280 g/ha [14]: 100% |
| C=CCNC(=O)COc1nn(-c2ccccc2F)c(-c2ccc(F)nc2)c1Br [Example X-001, N-Allyl-2-{[4-bromo-1-(2-fluorophenyl)-5-(6-fluoropyridin-3-yl)-1H-pyrazol-3-yl]oxy}acetamide] |  |  |  |  |  |  |  |  |  |  |  |  |  |  | 100 | 100 | 100 | 100 | 90 | 100 | pest or weed control at 320 g/ha [7]: 100%; pest or weed control at 320 g/ha [8]: 100%; pest or weed control at 320 g/ha [9]: 100%; pest or weed control at 320 g/ha [10]: 90%; pest or weed control at 320 g/ha [11]: 90%; pest or weed control at 320 g/ha [12]: 90%; pest or weed control at 320 g/ha [13]: 80%; pest or weed control at 1280 g/ha [14]: 100% |
